According to ChEMBL document CHEMBL5360570, “Discovery of pyrazolo[3,4-b]pyridine derivatives as novel and potent Mps1 inhibitors for the treatment of cancer” (Eur J Med Chem, 2023):

Experiments:
[1] = tested on: Fibroblast growth factor receptor 2 (Homo sapiens), P21802 [V564F]; assay: Inhibition of FGFR2 V564F mutant (unknown origin) assessed as residual activity at 1 uM relative to control
[2] = biological target: ALK tyrosine kinase receptor (Homo sapiens) (UniProt Q9UM73); assay: Inhibition of ALK (unknown origin) assessed as residual activity at 1 uM relative to control
[3] = tested on: ALK tyrosine kinase receptor (Homo sapiens), Q9UM73 [L1152R]; assay: Inhibition of ALK L1152R mutant (unknown origin) assessed as residual activity at 1 uM relative to control
[4] = biological target: T1, Dual specificity protein kinase TTK (Homo sapiens, UniProt P33981); assay: Inhibition of Mps1 (unknown origin) pretreated for 10 mins followed by substrate addition and measured after 60 mins in presence of ATP by ADP-glo kinase assay
T1 sequence (P33981 whole entry): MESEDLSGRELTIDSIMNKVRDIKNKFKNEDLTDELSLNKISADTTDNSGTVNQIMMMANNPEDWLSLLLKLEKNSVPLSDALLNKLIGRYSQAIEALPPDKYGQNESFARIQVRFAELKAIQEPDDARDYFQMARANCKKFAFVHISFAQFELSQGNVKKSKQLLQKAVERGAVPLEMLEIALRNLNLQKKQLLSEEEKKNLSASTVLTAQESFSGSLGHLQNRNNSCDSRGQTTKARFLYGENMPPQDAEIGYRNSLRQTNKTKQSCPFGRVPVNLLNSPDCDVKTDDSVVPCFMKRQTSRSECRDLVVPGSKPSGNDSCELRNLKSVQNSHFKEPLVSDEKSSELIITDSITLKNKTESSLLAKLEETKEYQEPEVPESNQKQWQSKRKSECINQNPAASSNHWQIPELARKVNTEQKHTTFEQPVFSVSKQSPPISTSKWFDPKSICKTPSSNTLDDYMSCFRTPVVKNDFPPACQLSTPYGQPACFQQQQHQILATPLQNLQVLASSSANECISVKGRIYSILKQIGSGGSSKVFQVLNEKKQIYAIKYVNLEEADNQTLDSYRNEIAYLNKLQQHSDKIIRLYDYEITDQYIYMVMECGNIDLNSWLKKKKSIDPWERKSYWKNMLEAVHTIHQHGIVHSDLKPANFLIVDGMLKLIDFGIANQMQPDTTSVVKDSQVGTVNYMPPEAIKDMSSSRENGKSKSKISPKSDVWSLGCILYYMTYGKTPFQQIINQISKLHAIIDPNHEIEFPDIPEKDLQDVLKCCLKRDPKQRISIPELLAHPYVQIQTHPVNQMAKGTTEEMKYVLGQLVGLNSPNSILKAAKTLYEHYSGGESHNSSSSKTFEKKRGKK

[5] = AUC (0 to t) in Sprague-Dawley rat at 10 mg/kg, po measured upto 24 hrs by LC-MS/MS analysis; assay type: ADME, organism-based; design: time < 24 hrs, dose 10 mg/kg, route po; conditions: in vivo
MDA-MB-468 [6] = assay: Antitumor activity against human MDA-MB-468 cells xenografted in BALB/c nude mouse assessed as tumor growth inhibition at 30 mg/kg, iv administered once daily for 21 days; assay type: functional; conditions: MDA-MB-468, 504 h, time 21 day, read-out: TGI
MDA-MB-468 [7] = assay: Antitumor activity against human MDA-MB-468 cells xenografted in BALB/c nude mouse assessed as tumor growth inhibition at 60 mg/kg, po administered once daily for 21 days; assay type: functional; conditions: MDA-MB-468, 504 h, time 21 day, read-out: TGI
[8] = tested on: EML4-ALK (Homo sapiens), Q9UM73+Q9HC35 [F1174L]; assay: Inhibition of ALK F1174L mutant (unknown origin)/EML4 (unknown origin) assessed as residual activity at 1 uM relative to control; assay type: protein assay
[9] = Tmax in Sprague-Dawley rat at 2 mg/kg, iv measured upto 24 hrs by LC-MS/MS analysis; assay type: ADME, organism-based; conditions: in vivo
ALK-TFG (Homo sapiens) = ALK-TFG (Homo sapiens) (UniProt Q9UM73+Q92734); assay: Inhibition of ALK-TFG (Tex4Aex20) (unknown origin) assessed as residual activity at 1 uM relative to control; assay type: protein assay
[10] = AUC (0 to infinity) in Sprague-Dawley rat at 2 mg/kg, iv measured upto 24 hrs by LC-MS/MS analysis; assay type: ADME, organism-based; design: dose 2 mg/kg, time < 24 hrs, route iv; conditions: in vivo
[11] = biological target: Macrophage colony-stimulating factor 1 receptor (Homo sapiens) (UniProt P07333); assay: Inhibition of FMS (unknown origin) assessed as residual activity at 1 uM relative to control
Macrophage colony-stimulating factor 1 receptor (Homo sapiens), sequence (P07333 whole entry): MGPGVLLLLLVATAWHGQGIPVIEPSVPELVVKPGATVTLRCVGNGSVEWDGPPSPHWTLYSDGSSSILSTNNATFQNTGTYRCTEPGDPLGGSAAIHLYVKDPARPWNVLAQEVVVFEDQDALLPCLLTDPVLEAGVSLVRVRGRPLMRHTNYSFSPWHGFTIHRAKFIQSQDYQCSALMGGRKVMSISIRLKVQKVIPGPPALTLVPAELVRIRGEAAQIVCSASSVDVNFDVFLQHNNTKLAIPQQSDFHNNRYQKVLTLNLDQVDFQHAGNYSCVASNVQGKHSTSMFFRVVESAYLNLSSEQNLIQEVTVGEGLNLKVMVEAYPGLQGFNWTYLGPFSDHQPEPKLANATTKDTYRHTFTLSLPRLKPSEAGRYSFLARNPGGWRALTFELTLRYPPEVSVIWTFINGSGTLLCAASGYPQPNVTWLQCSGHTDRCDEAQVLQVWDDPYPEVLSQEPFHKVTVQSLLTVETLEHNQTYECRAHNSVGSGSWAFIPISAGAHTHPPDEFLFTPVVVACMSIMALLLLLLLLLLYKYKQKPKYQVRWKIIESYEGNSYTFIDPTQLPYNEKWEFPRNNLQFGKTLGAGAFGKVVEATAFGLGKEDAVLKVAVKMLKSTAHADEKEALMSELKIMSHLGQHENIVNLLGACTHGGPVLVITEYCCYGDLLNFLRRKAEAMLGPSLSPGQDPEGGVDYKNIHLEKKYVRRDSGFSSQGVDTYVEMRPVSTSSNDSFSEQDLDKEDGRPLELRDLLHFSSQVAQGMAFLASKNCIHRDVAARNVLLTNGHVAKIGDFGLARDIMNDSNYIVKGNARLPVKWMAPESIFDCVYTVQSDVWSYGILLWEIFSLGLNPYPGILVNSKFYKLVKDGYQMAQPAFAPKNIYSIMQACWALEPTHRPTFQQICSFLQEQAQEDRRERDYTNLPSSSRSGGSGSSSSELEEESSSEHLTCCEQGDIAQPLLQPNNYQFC

[12] = biological target: Calcium/calmodulin-dependent protein kinase type II subunit alpha (Homo sapiens) (UniProt Q9UQM7); assay: Inhibition of CaMK2alpha (unknown origin) assessed as residual activity at 1 uM relative to control
Calcium/calmodulin-dependent protein kinase type II subunit alpha (Homo sapiens), sequence (Q9UQM7 whole entry): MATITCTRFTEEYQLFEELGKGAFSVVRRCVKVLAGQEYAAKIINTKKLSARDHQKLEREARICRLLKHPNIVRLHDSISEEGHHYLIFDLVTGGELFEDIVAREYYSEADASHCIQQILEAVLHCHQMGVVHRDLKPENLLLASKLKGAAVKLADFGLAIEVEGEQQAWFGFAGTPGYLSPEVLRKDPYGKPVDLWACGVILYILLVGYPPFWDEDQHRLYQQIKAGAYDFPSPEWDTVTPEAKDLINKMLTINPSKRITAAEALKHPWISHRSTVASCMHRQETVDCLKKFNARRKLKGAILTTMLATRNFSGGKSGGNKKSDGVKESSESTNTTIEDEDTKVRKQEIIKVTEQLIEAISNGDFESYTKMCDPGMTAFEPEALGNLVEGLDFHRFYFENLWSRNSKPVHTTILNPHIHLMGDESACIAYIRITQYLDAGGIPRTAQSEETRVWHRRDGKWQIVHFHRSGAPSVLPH

[13] = AUC (0 to t) in Sprague-Dawley rat at 2 mg/kg, iv measured upto 24 hrs by LC-MS/MS analysis; assay type: ADME, organism-based; design: dose 2 mg/kg, time < 24 hrs, route iv; conditions: in vivo
[14] = tested on: ALK tyrosine kinase receptor (Homo sapiens), Q9UM73 [T1151M]; assay: Inhibition of ALK T1151M mutant (unknown origin) assessed as residual activity at 1 uM relative to control
[15] = Half life in Sprague-Dawley rat at 2 mg/kg, iv measured upto 24 hrs by LC-MS/MS analysis; assay type: ADME, organism-based; conditions: in vivo
[16] = MRT (0 to t) in Sprague-Dawley rat at 10 mg/kg, po measured upto 24 hrs by LC-MS/MS analysis; assay type: ADME, organism-based; conditions: in vivo
ALK-TPM3 (Homo sapiens) = ALK-TPM3 (Homo sapiens) (UniProt Q9UM73+P06753); assay: Inhibition of ALK-TPM3 (unknown origin) assessed as residual activity at 1 uM relative to control; assay type: protein assay
[17] = Metabolic stability in human liver microsome assessed as parent compound remaining preincubated for 10 mins followed by NADPH addition and measured at 60 mins by LC-MS/MS analysis; assay type: ADME; conditions: liver microsomes, time 70 min, read-out: Stability
[18] = biological target: Serine/threonine-protein kinase MARK1 (Homo sapiens) (UniProt Q9P0L2); assay: Inhibition of MARK1 (unknown origin) assessed as residual activity at 1 uM relative to control
[19] = Antiproliferative activity against human RBE cells assessed inhibition of cell growth incubated for 72 hrs by CCK-8 assay; assay type: functional, cell-based
[20] = biological target: NUAK family SNF1-like kinase 2 (Homo sapiens) (UniProt Q9H093); assay: Inhibition of SNARK (unknown origin) assessed as residual activity at 1 uM relative to control
[21] = tested on: ALK tyrosine kinase receptor (Homo sapiens), Q9UM73 [C1156Y]; assay: Inhibition of ALK C1156Y mutant (unknown origin) assessed as residual activity at 1 uM relative to control
ALK tyrosine kinase receptor (Homo sapiens), Q9UM73 [C1156Y], sequence (Q9UM73 whole entry C1156Y, looked up): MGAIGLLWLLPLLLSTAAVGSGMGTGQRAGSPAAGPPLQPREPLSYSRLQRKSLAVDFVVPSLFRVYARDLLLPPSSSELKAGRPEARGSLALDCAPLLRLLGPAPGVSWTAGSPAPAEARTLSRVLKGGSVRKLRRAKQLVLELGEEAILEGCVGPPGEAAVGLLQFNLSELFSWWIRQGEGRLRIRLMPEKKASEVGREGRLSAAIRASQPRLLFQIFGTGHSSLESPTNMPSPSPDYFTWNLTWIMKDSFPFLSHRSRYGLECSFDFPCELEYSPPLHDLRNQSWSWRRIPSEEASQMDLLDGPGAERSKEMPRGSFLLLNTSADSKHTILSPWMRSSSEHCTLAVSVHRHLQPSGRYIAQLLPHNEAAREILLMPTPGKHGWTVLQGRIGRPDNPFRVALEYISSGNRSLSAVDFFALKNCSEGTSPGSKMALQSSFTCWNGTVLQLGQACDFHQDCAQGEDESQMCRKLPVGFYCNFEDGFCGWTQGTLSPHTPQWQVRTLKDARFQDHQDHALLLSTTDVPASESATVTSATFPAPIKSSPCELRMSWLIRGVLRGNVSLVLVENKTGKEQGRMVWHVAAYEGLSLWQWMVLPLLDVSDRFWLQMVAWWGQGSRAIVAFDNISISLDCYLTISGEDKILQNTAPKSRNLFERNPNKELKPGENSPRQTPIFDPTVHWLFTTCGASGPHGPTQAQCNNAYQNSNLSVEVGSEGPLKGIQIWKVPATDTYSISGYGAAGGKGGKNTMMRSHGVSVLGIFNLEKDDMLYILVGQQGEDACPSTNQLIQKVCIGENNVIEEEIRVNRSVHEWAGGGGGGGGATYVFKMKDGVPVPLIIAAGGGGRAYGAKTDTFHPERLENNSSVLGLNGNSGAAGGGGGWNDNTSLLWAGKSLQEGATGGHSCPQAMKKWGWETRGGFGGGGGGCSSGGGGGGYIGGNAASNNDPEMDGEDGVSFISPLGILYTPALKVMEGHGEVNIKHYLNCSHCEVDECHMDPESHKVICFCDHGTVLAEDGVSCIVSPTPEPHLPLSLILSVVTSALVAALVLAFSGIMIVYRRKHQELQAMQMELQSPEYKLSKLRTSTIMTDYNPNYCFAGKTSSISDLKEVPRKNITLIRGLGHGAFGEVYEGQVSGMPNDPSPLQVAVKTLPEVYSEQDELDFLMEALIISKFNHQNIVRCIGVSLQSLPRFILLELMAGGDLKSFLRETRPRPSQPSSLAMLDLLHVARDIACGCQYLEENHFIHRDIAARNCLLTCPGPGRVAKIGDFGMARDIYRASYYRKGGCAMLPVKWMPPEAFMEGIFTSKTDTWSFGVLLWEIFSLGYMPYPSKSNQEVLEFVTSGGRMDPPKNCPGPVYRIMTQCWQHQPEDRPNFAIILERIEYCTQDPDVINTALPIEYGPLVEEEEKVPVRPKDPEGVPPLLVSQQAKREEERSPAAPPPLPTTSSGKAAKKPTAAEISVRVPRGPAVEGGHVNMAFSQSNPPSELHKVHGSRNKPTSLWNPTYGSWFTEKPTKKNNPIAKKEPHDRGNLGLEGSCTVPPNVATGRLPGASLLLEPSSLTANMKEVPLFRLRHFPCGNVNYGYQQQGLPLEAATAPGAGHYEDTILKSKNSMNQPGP

[22] = Metabolic stability in human liver microsome assessed as parent compound remaining preincubated for 10 mins followed by NADPH addition and measured at 15 mins by LC-MS/MS analysis; assay type: ADME; conditions: liver microsomes, time 25 min, read-out: Stability
[23] = AUC (0 to infinity) in Sprague-Dawley rat at 10 mg/kg, po measured upto 24 hrs by LC-MS/MS analysis; assay type: ADME, organism-based; design: dose 10 mg/kg, time < 24 hrs, route po; conditions: in vivo
[24] = tested on: ALK tyrosine kinase receptor (Homo sapiens), Q9UM73 [G1269A]; assay: Inhibition of ALK G1269A mutant (unknown origin) assessed as residual activity at 1 uM relative to control
ALK tyrosine kinase receptor (Homo sapiens), Q9UM73 [G1269A], sequence (Q9UM73 whole entry G1269A): as the sequence (Q9UM73 whole entry C1156Y, looked up) above, with Y1156C, G1269A counted along it

[25] = MRT (0 to infinity) in Sprague-Dawley rat at 10 mg/kg, po measured upto 24 hrs by LC-MS/MS analysis; assay type: ADME, organism-based; conditions: in vivo

## CCc1cccc(CC)c1N1CCn2cc(-c3nc(Nc4ccc(N5CCN(C(C)=O)CC5)cc4OC)nc4[nH]ncc34)cc2C1=O
[1]
  Activity: < 10%
[2]
  Activity: < 10%
[3]
  Activity: < 10%
[4]
  IC50: 2.6 nM
[5]
  AUC(0-t) at 24 h: 204 ng·h/mL
MDA-MB-468 [6]
  inhibition in vivo at 30 mg/kg: 21%
MDA-MB-468 [7]
  inhibition in vivo at 60 mg/kg: 34%
[8]
  Activity: < 10%
[9]
  Tmax: 4.98 min
ALK-TFG (Homo sapiens)
  Activity: < 10%
[10]
  AUC(0-inf): 1050 ng·h/mL
[11]
  Activity: < 10%
[12]
  Activity: < 10%
[13]
  AUC(0-t) at 24 h: 1050 ng·h/mL
[14]
  Activity: < 10%
[15]
  half-life: 49.5 min
[16]
  MRT last at 24 h: 66.6 min
ALK-TPM3 (Homo sapiens)
  Activity: < 10%
[17]
  remaining at 1 h: 29.4%
[18]
  Activity: < 10%
[19]
  IC50: > 10000 nM
[20]
  Activity: < 10%
[21]
  Activity: < 10%
[22]
  remaining at 0.25 h: 64.6%
[23]
  AUC(0-inf): 208 ng·h/mL
[24]
  Activity: < 10%
[25]
  MRT inf: 73.8 min
